Measured values: ChEMBL document CHEMBL1201862, “PubChem BioAssay data set” (2004)
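Dose response: 5 concentrations. Exposure: 48 h. Format: 96-well plates. Endpoint: linear interpolation; highest concentration if not reached. At the GI50, growth is halved.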 Activity calls are given as the source filed them. Cut-off read from the data, not from the text of the source: active = GI50 up to about 1.1 µM and inactive = higher.

Key:
Assay in all cases: NCI-60 cell line screen, 48 h
BT-549 = tested on: BT-549
ACHN = tested on: ACHN
UACC-257 = tested on: UACC-257
NCI-H226 = tested on: NCI-H226
EKVX = tested on: EKVX
A498 = tested on: A498
MCF7 = tested on: MCF7
OVCAR-3 = tested on: OVCAR-3
SK-OV-3 = tested on: SK-OV-3
U-251 = tested on: U-251
COLO 205 = tested on: COLO 205
786-0 = tested on: 786-0
SF-295 = tested on: SF-295
NCI-H522 = tested on: NCI-H522
HOP-62 = tested on: HOP-62
SF-539 = tested on: SF-539
SK-MEL-28 = tested on: SK-MEL-28

Measured: GI50

Cc1cc(N2CCN(C)CC2)n2nc(-c3ccc(Cl)cc3)nc2n1
inactive: BT-549 99.1 µM | ACHN 50.6 µM | UACC-257 77.6 µM | NCI-H226 > 100 µM | EKVX 80.5 µM | A498 43.3 µM | MCF7 > 100 µM | OVCAR-3 > 100 µM | SK-OV-3 > 100 µM | U-251 > 100 µM | COLO 205 81.7 µM | 786-0 50.7 µM | SF-295 91.2 µM | NCI-H522 84.7 µM | HOP-62 > 100 µM | SF-539 75 µM | SK-MEL-28 91.8 µM

O=S1(=O)CCN(Cc2ccccn2)CC1
inactive: BT-549 > 100 µM | ACHN > 100 µM | UACC-257 > 100 µM | NCI-H226 > 100 µM | EKVX > 100 µM | A498 > 100 µM | MCF7 > 100 µM | OVCAR-3 4.49 µM | SK-OV-3 > 100 µM | U-251 > 100 µM | COLO 205 > 100 µM | 786-0 > 100 µM | SF-295 > 100 µM | NCI-H522 > 100 µM | HOP-62 > 100 µM | SF-539 > 100 µM | SK-MEL-28 > 100 µM

Cc1nn(C(=O)c2ccccc2O)c2c1C(c1ccc([N+](=O)[O-])cc1)SC(=N)N2 (stereo not given)
active: SF-539 0.984 µM
inactive: BT-549 7.8 µM | ACHN 1.17 µM | UACC-257 3.21 µM | NCI-H226 > 4.12 µM | EKVX > 10 µM | A498 2.78 µM | MCF7 3.72 µM | OVCAR-3 4.05 µM | SK-OV-3 6.38 µM | U-251 2.9 µM | COLO 205 > 8.61 µM | 786-0 > 5.24 µM | SF-295 3.13 µM | NCI-H522 5.6 µM | HOP-62 4.92 µM | SK-MEL-28 > 10 µM

Oc1nc2cc3nc(O)c(O)nc3cc2nc1O
inactive: BT-549 > 100 µM | ACHN > 100 µM | UACC-257 > 100 µM | NCI-H226 > 100 µM | EKVX > 100 µM | A498 > 100 µM | MCF7 > 100 µM | OVCAR-3 > 100 µM | SK-OV-3 > 100 µM | U-251 > 100 µM | COLO 205 > 100 µM | 786-0 > 100 µM | SF-295 > 100 µM | NCI-H522 > 100 µM | SF-539 > 100 µM | SK-MEL-28 > 100 µM

O=C1CCCc2ccc3c(c21)CC1(Cc2cc4c(cc2C1)CCCC4)C3
inactive: BT-549 25.1 µM | ACHN 16.1 µM | UACC-257 18.5 µM | NCI-H226 17.4 µM | EKVX 21.1 µM | A498 37.6 µM | MCF7 17.5 µM | OVCAR-3 20.1 µM | SK-OV-3 43.9 µM | U-251 20.4 µM | COLO 205 14.8 µM | 786-0 18.1 µM | SF-295 29.8 µM | NCI-H522 17.3 µM | HOP-62 24.7 µM | SF-539 20.3 µM | SK-MEL-28 24.9 µM

COC(=O)CC1C=CC(C)(OC)OO1 (stereo not given)
inactive: BT-549 > 100 µM | ACHN 94.4 µM | UACC-257 > 100 µM | NCI-H226 > 100 µM | EKVX > 100 µM | A498 > 100 µM | MCF7 53.1 µM | OVCAR-3 87.7 µM | SK-OV-3 > 100 µM | U-251 > 100 µM | COLO 205 55.7 µM | 786-0 > 100 µM | SF-295 > 100 µM | NCI-H522 16.9 µM | HOP-62 > 100 µM | SF-539 > 100 µM | SK-MEL-28 > 100 µM

O=c1cc(NNc2cccc3ccccc23)[nH]c(=O)[nH]1
inactive: BT-549 16.4 µM | ACHN 16.5 µM | UACC-257 15.7 µM | NCI-H226 13 µM | EKVX 14.6 µM | A498 19.8 µM | MCF7 1.69 µM | OVCAR-3 14 µM | SK-OV-3 26.7 µM | U-251 14.6 µM | COLO 205 17.3 µM | 786-0 6.12 µM | SF-295 17.5 µM | NCI-H522 14.8 µM | HOP-62 17 µM | SF-539 15.6 µM | SK-MEL-28 18.6 µM

C=C(C)C1CC2(C)C(C)CC(O)CC2C(OC(=O)C=C(C)C)C1O (stereo not given)
active: NCI-H226 0.933 µM
inactive: BT-549 42.4 µM | ACHN 18.6 µM | UACC-257 53.1 µM | EKVX 34.8 µM | A498 65.5 µM | MCF7 29.6 µM | SK-OV-3 58.6 µM | U-251 40 µM | COLO 205 16.3 µM | 786-0 > 100 µM | SF-295 23 µM | NCI-H522 24.3 µM | SF-539 30.9 µM | SK-MEL-28 51.2 µM

CC1(C)OCC(COC(=O)C=[N+]=[N-])O1 (stereo not given)
inactive: BT-549 > 100 µM | ACHN > 100 µM | UACC-257 > 100 µM | NCI-H226 > 100 µM | EKVX > 100 µM | A498 > 100 µM | MCF7 46.5 µM | OVCAR-3 > 100 µM | SK-OV-3 > 100 µM | U-251 > 100 µM | COLO 205 > 100 µM | 786-0 > 100 µM | SF-295 > 100 µM | NCI-H522 > 100 µM | HOP-62 79.8 µM | SK-MEL-28 > 100 µM

CC1NCCC(CC(=O)O)C1CC(=O)O (stereo not given)
inactive: BT-549 > 100 µM | ACHN > 100 µM | UACC-257 > 100 µM | NCI-H226 > 100 µM | EKVX > 100 µM | A498 > 100 µM | MCF7 > 100 µM | OVCAR-3 > 100 µM | SK-OV-3 > 100 µM | U-251 > 100 µM | COLO 205 > 100 µM | 786-0 > 100 µM | SF-295 > 100 µM | NCI-H522 > 100 µM | HOP-62 > 100 µM | SK-MEL-28 > 100 µM

CC1=CC[C@](C)(O)[C@@]2(C)CC[C@H]3C(=C(C)C)C(=O)C[C@]3(C)C[C@H]12
inactive: BT-549 13.8 µM | ACHN 38.7 µM | UACC-257 > 50 µM | NCI-H226 > 50 µM | EKVX > 50 µM | A498 > 50 µM | MCF7 31.3 µM | OVCAR-3 36.3 µM | SK-OV-3 > 50 µM | U-251 > 50 µM | COLO 205 45.5 µM | 786-0 15.7 µM | SF-295 > 50 µM | NCI-H522 10.4 µM | HOP-62 42.2 µM | SF-539 > 50 µM | SK-MEL-28 > 50 µM

O=C1c2ccccc2C(=O)N1c1nc(-c2ccc(Cl)cc2)cc(N2N=C(c3ccc(Br)cc3)CC2c2ccccc2)n1 (stereo not given)
active: EKVX 0.792 µM | OVCAR-3 0.863 µM | SF-295 0.91 µM
inactive: BT-549 3.21 µM | ACHN 3.9 µM | UACC-257 6.7 µM | NCI-H226 5.38 µM | A498 19.2 µM | MCF7 1.3 µM | SK-OV-3 6.34 µM | U-251 1.67 µM | COLO 205 1.9 µM | 786-0 4.93 µM | NCI-H522 2.09 µM | HOP-62 2.92 µM | SF-539 2.16 µM | SK-MEL-28 7.73 µM

CC1=C(C)C2(C#N)C(=O)N3C(=NC(c4ccccc4)NC3c3ccccc3)C2(C#N)C(c2ccccc2)N1 (stereo not given)
inactive: BT-549 > 100 µM | ACHN > 100 µM | UACC-257 > 100 µM | NCI-H226 > 100 µM | EKVX > 100 µM | A498 > 100 µM | MCF7 > 100 µM | SK-OV-3 > 100 µM | U-251 > 100 µM | COLO 205 > 100 µM | 786-0 > 100 µM | SF-295 > 100 µM | NCI-H522 > 100 µM | HOP-62 > 100 µM | SK-MEL-28 > 100 µM

Cc1ccc(/C=C2\CN(C)CC3C(c4ccc(C)cc4)=C(C#N)C(=O)NC23)cc1 (stereo not given)
inactive: BT-549 > 50 µM | ACHN > 50 µM | UACC-257 > 50 µM | NCI-H226 > 50 µM | EKVX > 50 µM | A498 > 50 µM | MCF7 > 50 µM | OVCAR-3 > 50 µM | SK-OV-3 > 50 µM | U-251 > 50 µM | COLO 205 > 50 µM | 786-0 > 50 µM | SF-295 > 50 µM | NCI-H522 > 50 µM | HOP-62 > 50 µM | SK-MEL-28 > 50 µM

COc1cc(/C=C/C(=O)N[C@@H]2C(=O)N3[C@@H]2SC(C)(C)[C@@H]3C(=O)O)cc(OC)c1OC
inactive: BT-549 > 100 µM | ACHN > 100 µM | UACC-257 > 100 µM | NCI-H226 > 100 µM | EKVX > 100 µM | A498 > 100 µM | MCF7 > 100 µM | OVCAR-3 > 100 µM | SK-OV-3 > 100 µM | U-251 > 100 µM | COLO 205 > 100 µM | 786-0 > 100 µM | SF-295 > 100 µM | NCI-H522 > 100 µM | SF-539 > 100 µM | SK-MEL-28 > 100 µM

Cc1ccn2c(CCc3nnc4cc(C)ccn34)nnc2c1
inactive: BT-549 > 100 µM | ACHN > 100 µM | UACC-257 > 100 µM | NCI-H226 > 100 µM | EKVX > 100 µM | A498 > 100 µM | MCF7 > 100 µM | OVCAR-3 > 100 µM | SK-OV-3 > 100 µM | U-251 > 100 µM | COLO 205 > 100 µM | 786-0 > 100 µM | SF-295 > 100 µM | NCI-H522 > 100 µM | HOP-62 > 100 µM | SF-539 > 100 µM | SK-MEL-28 > 100 µM

CC(=O)OCCOc1cc2c([nH]c3ccccc32)c(C)c2cccc1-2
inactive: BT-549 2.75 µM | ACHN 1.75 µM | UACC-257 1.91 µM | NCI-H226 10.3 µM | EKVX 1.86 µM | A498 8.93 µM | MCF7 2.94 µM | OVCAR-3 2.01 µM | SK-OV-3 4.3 µM | U-251 1.69 µM | COLO 205 1.7 µM | 786-0 2.84 µM | SF-295 3.28 µM | NCI-H522 1.84 µM | HOP-62 4.6 µM | SF-539 1.91 µM | SK-MEL-28 2.58 µM
